From US20090326032A1, “PHARMACEUTICAL COMPOSITIONS COMPRISING NK1 RECEPTOR ANTAGONISTS AND SODIUM CHANNEL BLOCKERS” (GLAXO GROUP LIMITED, priority 2007, published 2009)
Where a name gives a salt, the structure may show the parent alone. Read-outs that look alike come from different tables or passages of the source.

Key:
[1] = blood and brain drug concentrations in satellite animals; assay type: in vivo, rat; conditions: for concentration at 60 min: CD, rat, intraperitoneal
[2] = tested on: tonic hindlimb extensor seizures; test: threshold for tonic hindlimb extensor seizures, corneal electroshock, 'up and down' method (CC50); assay type: in vivo, rat; conditions: ENa7 3 mg/kg s.c. alone, male CD rats
Experimental: This work was conducted in compliance with the Home Office Guidance on the operation of the Animals (Scientific Procedures) Act 1986 and GlaxoSmithKline ethical standards. Male CD rats (100-145 g) were supplied by Charles River, UK. Animals were group housed (6 animal per cage) with free access to food (Standard rodent chow; Harlan, UK) and water under a 12 h light/dark cycle (lights on at 0700 h). A period of at least one week between arrival at GSK and the study was allowed in all cases.
Animals were administered a test compound at the appropriate dose, route and pre-treatment time and returned to their home cage. Testing occurred in a separate room from that used for housing. […] Seizure threshold was determined using the ‘up and down’ method of Kimball et al. (1957)(Kimball A W, Burnett W T Jr, Doherty D G. (1957) Radiat Res. 7(1):1-12). […]
All doses were calculated as base. […]
Induction of seizure is measured as an all-or-nothing effect scored as either present (+) or absent (0) for each animal. […] Drug effects were calculated as the % change in CC50. Significant differences between drug-treated animals and appropriate vehicle treated groups were assessed according to the methods of Litchfield and Wilcoxon (1949). […]

concentration at 60 min ([1]; blood, 30 mg/kg, ENK6 30 mg/kg, ENa7 veh, n = 1, read-out: Blood ENK6) [ng/mL]	concentration at 60 min ([1]; blood, ENK6 30 mg/kg + ENa7 1 mg/kg, n = 2, read-out: Blood ENK6) [ng/mL]	concentration at 60 min ([1]; blood, ENK6 30 mg/kg + ENa7 3 mg/kg, n = 2, read-out: Blood ENK6) [ng/mL]	concentration at 60 min ([1]; brain, 30 mg/kg, ENK6 30 mg/kg, ENa7 veh, n = 1, read-out: Brain ENK6) [ng/g]	concentration at 60 min ([1]; brain, ENK6 30 mg/kg + ENa7 1 mg/kg, n = 2, read-out: Brain ENK6) [ng/g]	concentration at 60 min ([1]; brain, ENK6 30 mg/kg + ENa7 3 mg/kg, n = 2, read-out: Brain ENK6) [ng/g]	concentration of ENa7 in the presence of the NK1 antagonist ([1]; blood and brain, with vs without ENK6 30 mg/kg)	SMILES	seizure threshold [2]
558	456	1210	1260	1040	4800		COc1ccc(-n2nnnc2C(F)(F)F)cc1CN[C@H]1CCCN[C@H]1c1ccccc1 [ENK6, [2-Methoxy-5-(5-trifluoromethyl-tetrazol-1-yl)-benzyl]-([2S,3S]-2-phenyl-piperidin-3-yl)-amine dihydrochloride]	
						No increase	CN1CC[C@]2(CC[C@H](c3ccc(OCc4ccccc4F)cc3)N2)C1=O.Cl [ENa7, (2R,5R)-2-(4-{[(2-Fluorophenyl)methyl]oxy}phenyl)-7-methyl-1,7-diazaspiro[4.4]nonan-6-one hydrochloride]	robust and significant increase
